In US10213433B2 (AbbVie Inc., priority 2010, dated 2019):

What follows are molecules tested against Bcl-2 protein (Homo sapiens (Human), UniProt P10415) (assay: Bcl-2 binding TR-FRET (Time-Resolved Fluorescence-Resonance-Energy-Transfer) assay). Details: inhibition constant for binding to Bcl-2 protein.
Excerpt: The smaller the Ki value, the greater is the binding affinity.

Bcl-2 protein, sequence (P10415 whole entry): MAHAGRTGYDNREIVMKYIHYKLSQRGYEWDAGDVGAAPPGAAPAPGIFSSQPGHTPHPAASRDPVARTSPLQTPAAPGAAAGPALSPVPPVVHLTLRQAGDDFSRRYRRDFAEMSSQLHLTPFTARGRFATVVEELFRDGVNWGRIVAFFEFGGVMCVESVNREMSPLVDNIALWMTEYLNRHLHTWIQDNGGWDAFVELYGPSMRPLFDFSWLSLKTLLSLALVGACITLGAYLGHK

SMILES | Ki [nM]
O=C(NS(=O)(=O)c1ccc(NCCCN2CCOCC2)c([N+](=O)[O-])c1)c1ccc(N2CCN(Cc3ccccc3-c3ccc(Cl)cc3)CC2)cc1Oc1cnc2[nH]ccc2c1 [Compound 2, 4-{4-[(4′-chloro-1,1′-biphenyl-2-yl)methyl]piperazin-1-yl}-N-({4-[(3-morpholin-4-ylpropyl)amino]-3-nitrophenyl}sulfonyl)-2-(1H-pyrrolo[2,3-b]pyridin-5-yloxy)benzamide] | < 0.01
CN1CCC(Nc2ccc(S(=O)(=O)NC(=O)c3ccc(N4CCN(CC5=C(c6ccc(Cl)cc6)CC(C)(C)CC5)CC4)cc3Oc3cnc4[nH]ccc4c3)cc2[N+](=O)[O-])CC1 [Compound 4, 4-(4-{[2-(4-chlorophenyl)-4,4-dimethylcyclohex-1-en-1-yl]methyl}piperazin-1-yl)-N-({4-[(1-methylpiperidin-4-yl)amino]-3-nitrophenyl}sulfonyl)-2-(1H-pyrrolo[2,3-b]pyridin-5-yloxy)benzamide] | < 0.01
COCCNc1ccc(S(=O)(=O)NC(=O)c2ccc(N3CCN(CC4=C(c5ccc(Cl)cc5)CC(C)(C)CC4)CC3)cc2Oc2cnc3[nH]ccc3c2)cc1[N+](=O)[O-] [Compound 10, 4-(4-{[2-(4-chlorophenyl)-4,4-dimethylcyclohex-1-en-1-yl]methyl}piperazin-1-yl)-N-({4-[(2-methoxyethyl)amino]-3-nitrophenyl}sulfonyl)-2-(1H-pyrrolo[2,3-b]pyridin-5-yloxy)benzamide] | < 0.01
CC1(C)CCC(CN2CCN(c3ccc(C(=O)NS(=O)(=O)c4ccc(NC[C@H]5CCCOC5)c([N+](=O)[O-])c4)c(Oc4cnc5[nH]ccc5c4)c3)CC2)=C(c2ccc(Cl)cc2)C1 [Compound 13, 4-(4-{[2-(4-chlorophenyl)-4,4-dimethylcyclohex-1-en-1-yl]methyl}piperazin-1-yl)-N-[(3-nitro-4-{[(3R)-tetrahydro-2H-pyran-3-ylmethyl]amino}phenyl)sulfonyl]-2-(1H-pyrrolo[2,3-b]pyridin-5-yloxy)benzamide] | < 0.01
CC1(C)CC(c2ccc(Cl)cc2)=C(CN2CCN(c3ccc(C(=O)NS(=O)(=O)c4ccc(NCC5CCOCC5)c([N+](=O)[O-])c4)c(Oc4cnc5[nH]ccc5c4)c3)CC2)CO1 [Compound 15, 4-(4-{[4-(4-chlorophenyl)-6,6-dimethyl-5,6-dihydro-2H-pyran-3-yl]methyl}piperazin-1-yl)-N-({3-nitro-4-[(tetrahydro-2H-pyran-4-ylmethyl)amino]phenyl}sulfonyl)-2-(1H-pyrrolo[2,3-b]pyridin-5-yloxy)benzamide] | < 0.01
CC1(C)CCC(CN2CCN(c3ccc(C(=O)NS(=O)(=O)c4ccc(NCC5COCCO5)c([N+](=O)[O-])c4)c(Oc4cnc5[nH]ccc5c4)c3)CC2)=C(c2ccc(Cl)cc2)C1 (centres unmarked) [Compound 25, 4-(4-{[2-(4-chlorophenyl)-4,4-dimethylcyclohex-1-en-1-yl]methyl}piperazin-1-yl)-N-({4-[(1,4-dioxan-2-ylmethyl)amino]-3-nitrophenyl}sulfonyl)-2-(1H-pyrrolo[2,3-b]pyridin-5-yloxy)benzamide] | < 0.01
CC1(C)CCC(CN2CCN(c3ccc(C(=O)NS(=O)(=O)c4ccc(OC[C@@H]5COCCO5)c([N+](=O)[O-])c4)c(Oc4cnc5[nH]ccc5c4)c3)CC2)=C(c2ccc(Cl)cc2)C1 [Compound 28, 4-(4-{[2-(4-chlorophenyl)-4,4-dimethylcyclohex-1-en-1-yl]methyl}piperazin-1-yl)-N-({4-[(2S)-1,4-dioxan-2-ylmethoxy]-3-nitrophenyl}sulfonyl)-2-(1H-pyrrolo[2,3-b]pyridin-5-yloxy)benzamide] | < 0.01
CC1(C)CCC(CN2CCN(c3ccc(C(=O)NS(=O)(=O)c4ccc(OC[C@H]5COCCO5)c([N+](=O)[O-])c4)c(Oc4cnc5[nH]ccc5c4)c3)CC2)=C(c2ccc(Cl)cc2)C1 [Compound 30, 4-(4-{[2-(4-chlorophenyl)-4,4-dimethylcyclohex-1-en-1-yl]methyl}piperazin-1-yl)-N-({4-[(2R)-1,4-dioxan-2-ylmethoxy]-3-nitrophenyl}sulfonyl)-2-(1H-pyrrolo[2,3-b]pyridin-5-yloxy)benzamide] | < 0.01
CC1(C)CC(c2ccc(Cl)cc2)=C(CN2CCN(c3ccc(C(=O)NS(=O)(=O)c4ccc(NCC5COCCO5)c([N+](=O)[O-])c4)c(Oc4cnc5[nH]ccc5c4)c3)CC2)CO1 (centres unmarked) [Compound 31, 4-(4-{[4-(4-chlorophenyl)-6,6-dimethyl-5,6-dihydro-2H-pyran-3-yl]methyl}piperazin-1-yl)-N-({4-[(1,4-dioxan-2-ylmethyl)amino]-3-nitrophenyl}sulfonyl)-2-(1H-pyrrolo[2,3-b]pyridin-5-yloxy)benzamide] | < 0.01
CC1(C)CC(c2ccc(Cl)cc2)=C(CN2CCN(c3ccc(C(=O)NS(=O)(=O)c4ccc(OCC5COCCO5)c([N+](=O)[O-])c4)c(Oc4cnc5[nH]ccc5c4)c3)CC2)CO1 (centres unmarked) [Compound 32, 4-(4-{[4-(4-chlorophenyl)-6,6-dimethyl-5,6-dihydro-2H-pyran-3-yl]methyl}piperazin-1-yl)-N-{[4-(1,4-dioxan-2-ylmethoxy)-3-nitrophenyl]sulfonyl}-2-(1H-pyrrolo[2,3-b]pyridin-5-yloxy)benzamide] | < 0.01
CC1(C)CC(c2ccc(Cl)cc2)=C(CN2CCN(c3ccc(C(=O)NS(=O)(=O)c4cnc(OCC5CCOCC5)c(C#N)c4)c(Oc4cnc5[nH]ccc5c4)c3)CC2)CO1 [Compound 35, 4-(4-{[4-(4-chlorophenyl)-6,6-dimethyl-5,6-dihydro-2H-pyran-3-yl]methyl}piperazin-1-yl)-N-{[5-cyano-6-(tetrahydro-2H-pyran-4-ylmethoxy)pyridin-3-yl]sulfonyl}-2-(1H-pyrrolo[2,3-b]pyridin-5-yloxy)benzamide] | < 0.01
CC1(C)CCC(CN2CCN(c3ccc(C(=O)NS(=O)(=O)c4cnc(OCC5CCOCC5)c(Cl)c4)c(Oc4cnc5[nH]ccc5c4)c3)CC2)=C(c2ccc(Cl)cc2)C1 [Compound 40, 4-(4-{[2-(4-chlorophenyl)-4,4-dimethylcyclohex-1-en-1-yl]methyl}piperazin-1-yl)-N-{[5-chloro-6-(tetrahydro-2H-pyran-4-ylmethoxy)pyridin-3-yl]sulfonyl}-2-(1H-pyrrolo[2,3-b]pyridin-5-yloxy)benzamide] | < 0.01
CC1(C)CC(c2ccc(Cl)cc2)=C(CN2CCN(c3ccc(C(=O)NS(=O)(=O)c4cnc(OCC5CCOCC5)c(Cl)c4)c(Oc4cnc5[nH]ccc5c4)c3)CC2)CO1 [Compound 41, 4-(4-{[4-(4-chlorophenyl)-6,6-dimethyl-5,6-dihydro-2H-pyran-3-yl]methyl}piperazin-1-yl)-N-{[5-chloro-6-(tetrahydro-2H-pyran-4-ylmethoxy)pyridin-3-yl]sulfonyl}-2-(1H-pyrrolo[2,3-b]pyridin-5-yloxy)benzamide] | < 0.01
CN1CCC(Nc2ccc(S(=O)(=O)NC(=O)c3ccc(N4CCN(CC5=C(c6ccc(Cl)cc6)CC(C)(C)OC5)CC4)cc3Oc3cnc4[nH]ccc4c3)cc2S(=O)(=O)C(F)(F)F)CC1 [Compound 45, 4-(4-{[4-(4-chlorophenyl)-6,6-dimethyl-5,6-dihydro-2H-pyran-3-yl]methyl}piperazin-1-yl)-N-({4-[(1-methylpiperidin-4-yl)amino]-3-[(trifluoromethyl)sulfonyl]phenyl}sulfonyl)-2-(1H-pyrrolo[2,3-b]pyridin-5-yloxy)benzamide] | < 0.01
CN1CCC(COc2ncc(S(=O)(=O)NC(=O)c3ccc(N4CCN(CC5=C(c6ccc(Cl)cc6)CC(C)(C)CC5)CC4)cc3Oc3cnc4[nH]ccc4c3)cc2Br)CC1 [Compound 47, N-({5-bromo-6-[(1-methylpiperidin-4-yl)methoxy]pyridin-3-yl}sulfonyl)-4-(4-{[2-(4-chlorophenyl)-4,4-dimethylcyclohex-1-en-1-yl]methyl}piperazin-1-yl)-2-(1H-pyrrolo[2,3-b]pyridin-5-yloxy)benzamide] | < 0.01
CN1CCC(COc2ccc(S(=O)(=O)NC(=O)c3ccc(N4CCN(CC5=C(c6ccc(Cl)cc6)CC(C)(C)CC5)CC4)cc3Oc3cnc4[nH]ccc4c3)cc2[N+](=O)[O-])CC1 [Compound 48, 4-(4-{[2-(4-chlorophenyl)-4,4-dimethylcyclohex-1-en-1-yl]methyl}piperazin-1-yl)-N-({4-[(1-methylpiperidin-4-yl)methoxy]-3-nitrophenyl}sulfonyl)-2-(1H-pyrrolo[2,3-b]pyridin-5-yloxy)benzamide] | < 0.01
CC1(C)CCC(CN2CCN(c3ccc(C(=O)NS(=O)(=O)c4ccc(OCC5CCOC(C)(C)C5)c([N+](=O)[O-])c4)c(Oc4cnc5[nH]ccc5c4)c3)CC2)=C(c2ccc(Cl)cc2)C1 (centres unmarked) [Compound 51, 4-(4-{[2-(4-chlorophenyl)-4,4-dimethylcyclohex-1-en-1-yl]methyl}piperazin-1-yl)-N-({4-[(2,2-dimethyltetrahydro-2H-pyran-4-yl)methoxy]-3-nitrophenyl}sulfonyl)-2-(1H-pyrrolo[2,3-b]pyridin-5-yloxy)benzamide] | < 0.01
CC(=O)N1CCC(Nc2ccc(S(=O)(=O)NC(=O)c3ccc(N4CCN(CC5=C(c6ccc(Cl)cc6)CC(C)(C)CC5)CC4)cc3Oc3cnc4[nH]ccc4c3)cc2[N+](=O)[O-])CC1 [Compound 53, N-({4-[(1-acetylpiperidin-4-yl)amino]-3-nitrophenyl}sulfonyl)-4-(4-{[2-(4-chlorophenyl)-4,4-dimethylcyclohex-1-en-1-yl]methyl}piperazin-1-yl)-2-(1H-pyrrolo[2,3-b]pyridin-5-yloxy)benzamide] | < 0.01
CC1(C)CCC(CN2CCN(c3ccc(C(=O)NS(=O)(=O)c4ccc(NCCCN5CCOCC5)c([N+](=O)[O-])c4)c(Oc4cnc5[nH]ccc5c4)c3)CC2)=C(c2ccc(Cl)cc2)C1 [Compound 55, 4-(4-{[2-(4-chlorophenyl)-4,4-dimethylcyclohex-1-en-1-yl]methyl}piperazin-1-yl)-N-({4-[(3-morpholin-4-ylpropyl)amino]-3-nitrophenyl}sulfonyl)-2-(1H-pyrrolo[2,3-b]pyridin-5-yloxy)benzamide] | < 0.01
COCCOCCS(=O)(=O)c1ccc(S(=O)(=O)NC(=O)c2ccc(N3CCN(CC4=C(c5ccc(Cl)cc5)CC(C)(C)CC4)CC3)cc2Oc2cnc3[nH]ccc3c2)cc1Cl [Compound 58, N-[(3-chloro-4-{[2-(2-methoxyethoxyl)ethyl]sulfonyl}phenyl)sulfonyl]-4-(4-{[2-(4-chlorophenyl)-4,4-dimethylcyclohex-1-en-1-yl]methyl}piperazin-1-yl)-2-(1H-pyrrolo[2,3-b]pyridin-5-yloxy)benzamide] | < 0.01
